Measured values: ChEMBL document CHEMBL4622833, “Bifunctional small molecule-oligonucleotide hybrid as microRNA inhibitor” (Bioorg Med Chem, 2020)
Active and inactive are the calls of the source. No cut-off for these calls is given here. Numbered stars: 1 amine (or outer) side, 2 acyl side, 3 side chain; on linkers, the order of the positions; unused ones are H or OH. Square brackets hold non-standard residues; d marks the D form. Peptide text beside a SMILES is read from it. * marks the point of attachment. X6 = O=C1Cc2ccc(OCc3cn(N([C@@H](CS)C(=O)[*:2])[*:1])nn3)cc2C(=O)N1O; X3 = O=C1Cc2ccc(OCc3cn(N(CC(=O)[*:2])[*:1])nn3)cc2C(=O)N1O; X4 = C[C@@H](O)[C@@H](C(=O)[*:2])N(n1cc(CN[*:3])nn1)[*:1]; X7 = O=C([C@H](CS)N(n1cc(CCCC(=O)[*:3])nn1)[*:1])[*:2]; X1 = O=C([C@H](CS)N(n1cc(CN[*:3])nn1)[*:1])[*:2]; X5 = C[C@@H](C(=O)[*:2])N(n1cc(CN[*:3])nn1)[*:1]; X8 = O=C(NCCOCCOCCN*)c1ccc2c(c1)C(=O)N(O)C2=O; X2 = O=C1c2ccc(C(=O)*)cc2C(=O)N1O

What was measured:
Type in all cases: nucleic-acid assay
microRNA 21 [1] = assay: Binding affinity to [32P]pre-miRNA-21(unknown origin) assessed as reduction in mobility by electrophoretic mobility shift assay
microRNA 21 [2] = assay: Inhibition of Dicer mediated [32P] pre-miRNA-21 (unknown origin) maturation assessed as cleavage of pre-miRNA at 10 uM after 2.5 hrs by denaturating polyacrylamide gel electrophoresis
microRNA 21 [3] = assay: Inhibition of Dicer mediated [32P] pre-miRNA-21 (unknown origin) maturation assessed as cleavage of pre-miRNA at 50 uM after 2.5 hrs by denaturating polyacrylamide gel electrophoresis
microRNA 21 [4] = assay: Inhibition of Dicer mediated [32P] pre-miRNA-21 (unknown origin) maturation assessed as cleavage of pre-miRNA after 2.5 hrs by denaturating polyacrylamide gel electrophoresis
microRNA 21 [5] = assay: Inhibition of Dicer mediated [32P] pre-miRNA-21 (unknown origin) maturation assessed as cleavage of pre-miRNA at 1000 uM after 2.5 hrs by denaturating polyacrylamide gel electrophoresis
Pre-miRNA-29b = assay: Inhibition of Dicer mediated [32P] pre-miRNA-29b-1 (unknown origin) maturation assessed as cleavage of pre-miRNA at 1 mM after 2.5 hrs by denaturating polyacrylamide gel electrophoresis
microRNA 21 [6] = assay: Inhibition of Dicer mediated [32P] pre-miRNA-21 (unknown origin) maturation assessed as cleavage of pre-miRNA at 1 to 100 uM after 2.5 hrs by denaturating polyacrylamide gel electrophoresis

| inhibition (microRNA 21 [3]) | IC50 (microRNA 21 [4]) | Structure (SMILES) | further results |
| --- | --- | --- | --- |
| Active | 4.3 µM | C[C@H](NC(=O)[C@H](CS)NC(=O)[C@H](C)NC(=O)[C@H](C)NC(=O)[C@H](CS)NC(=O)[C@@H](NC(=O)[C@@H](NC(=O)[C@H](C)NC(=O)CNC(=O)[C@H](C)NC(=O)CNC(=O)[C@@H](NC(=O)[C@H](C)NC(=O)[C@H](CS)Nn1cc(CNC(=O)c2ccc3c(c2)C(=O)N(O)C3=O)nn1)[C@@H](C)O)[C@@H](C)O)[C@@H](C)O)C(=O)O (H-[X1](X2)ATGAGATTCAACA-OH) | Activity (microRNA 21 [1]): Active; inhibition (microRNA 21 [2]): Active |
| – | 0.5 µM | C[C@H](NC(=O)[C@H](CS)NC(=O)[C@H](C)NC(=O)[C@H](C)NC(=O)[C@H](CS)NC(=O)[C@@H](NC(=O)[C@@H](NC(=O)[C@H](C)NC(=O)CNC(=O)[C@H](C)NC(=O)CNn1cc(COc2ccc3c(c2)C(=O)N(O)C(=O)C3)nn1)[C@@H](C)O)[C@@H](C)O)C(=O)O (H-[X3]AGATTCAACA-OH) | inhibition (microRNA 21 [4]): Dose-dependent effect |
| – | – | C#CCNC(=O)c1ccc2c(c1)C(=O)N(O)C2=O | inhibition (microRNA 21 [5]): inactive; inhibition (Pre-miRNA-29b): inactive |
| Active | – | C[C@H](NC(=O)[C@H](CS)NC(=O)[C@H](C)NC(=O)[C@H](C)NC(=O)[C@H](CS)NC(=O)[C@@H](NC(=O)[C@@H](NC(=O)[C@H](C)NC(=O)CNC(=O)[C@H](C)NC(=O)CNC(=O)[C@@H](Nn1cc(CNC(=O)c2ccc3c(c2)C(=O)N(O)C3=O)nn1)[C@@H](C)O)[C@@H](C)O)[C@@H](C)O)C(=O)O (H-[X4](X2)GAGATTCAACA-OH) | – |
| Active | – | C[C@H](NC(=O)[C@H](CS)NC(=O)[C@H](C)NC(=O)[C@H](C)NC(=O)[C@H](CS)NC(=O)[C@@H](NC(=O)[C@@H](NC(=O)[C@H](C)NC(=O)CNC(=O)[C@H](C)Nn1cc(CNC(=O)c2ccc3c(c2)C(=O)N(O)C3=O)nn1)[C@@H](C)O)[C@@H](C)O)C(=O)O (H-[X5](X2)GATTCAACA-OH) | – |
| – | 3.3 µM | C[C@H](NC(=O)[C@H](CS)NC(=O)[C@H](C)NC(=O)[C@H](C)NC(=O)[C@H](CS)NC(=O)[C@@H](NC(=O)[C@@H](NC(=O)[C@H](C)NC(=O)CNC(=O)[C@H](C)NC(=O)CNC(=O)[C@@H](NC(=O)[C@H](C)NC(=O)[C@H](CS)Nn1cc(COc2ccc3c(c2)C(=O)N(O)C(=O)C3)nn1)[C@@H](C)O)[C@@H](C)O)[C@@H](C)O)C(=O)O (H-[X6]ATGAGATTCAACA-OH) | – |
| – | – | C[C@H](NC(=O)[C@H](CS)NC(=O)[C@H](C)NC(=O)[C@H](C)NC(=O)[C@H](CS)NC(=O)[C@@H](NC(=O)[C@@H](NC(=O)[C@H](C)NC(=O)CNC(=O)[C@H](C)NC(=O)CNC(=O)[C@@H](NC(=O)[C@H](C)NC(=O)[C@H](CS)Nn1cc(CCCC(=O)NCCOCCOCCNC(=O)c2ccc3c(c2)C(=O)N(O)C3=O)nn1)[C@@H](C)O)[C@@H](C)O)[C@@H](C)O)C(=O)O (H-[X7](X8)ATGAGATTCAACA-OH) | inhibition (microRNA 21 [6]): inactive |
